In this assay the target is T1, human cloned orexin-2 receptor (Homo sapiens, UniProt O43614).
T1 construct: expressed in transfected cells
T1 sequence (O43614 1-444): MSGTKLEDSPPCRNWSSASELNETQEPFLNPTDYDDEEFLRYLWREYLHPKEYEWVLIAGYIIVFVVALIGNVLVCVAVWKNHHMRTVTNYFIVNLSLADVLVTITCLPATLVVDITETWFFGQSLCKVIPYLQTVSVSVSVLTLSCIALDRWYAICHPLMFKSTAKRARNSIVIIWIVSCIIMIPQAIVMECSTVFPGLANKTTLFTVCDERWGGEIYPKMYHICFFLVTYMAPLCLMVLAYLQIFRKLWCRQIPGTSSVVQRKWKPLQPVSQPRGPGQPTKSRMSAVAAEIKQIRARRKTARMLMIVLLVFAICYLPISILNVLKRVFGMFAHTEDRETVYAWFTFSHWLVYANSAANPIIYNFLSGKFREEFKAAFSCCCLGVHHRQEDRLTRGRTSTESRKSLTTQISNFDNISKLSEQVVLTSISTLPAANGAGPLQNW
The assay is described as follows: Determination of antagonist affinity at human Orexin-2 receptor using FLIPR ([Ca2+]i, CHO cells, hOrexin A at EC80). Conditions: functional pKi from IC50 by modified Cheng-Prusoff, read-out: fpKi. It counts as cell-based. The source says:
Determination of Antagonist Affinity at Human Orexin-1 and 2 Receptors Using FLIPR
Adherent Chinese Hamster Ovary (CHO) cells, stably expressing the recombinant human Orexin-1 or human Orexin-2 receptors or Rat Basophilic Leukaemia Cells (RBL) stably expressing recombinant rat Orexin-1 or rat Orexin-2 receptors were maintained in culture in Alpha Minimum Essential Medium (Gibco/Invitrogen, cat. no.; 22571-020), supplemented with 10% decomplemented foetal bovine serum (Life Technologies, cat. no. 10106-078) and 400 μg/mL Geneticin G418 (Calbiochem, cat. no. 345810). Cells were grown as monolayers under 95%:5% air:CO2 at 37° C. […]
Compounds of the invention were tested in a final assay concentration range from 1.66×10^−5M to 1.58×10^−11M. […] This final concentration of hOrexin A was equivalent to the calculated EC80 for hOrexinA agonist potency in this test system. […]
The loaded cells were then incubated for 10 min at 37° C. with test compound. The plates were then placed into a FLIPR™ (Molecular Devices, UK) to monitor cell fluorescence (λex=488 nm, λEM=540 nm) (Sullivan E, Tucker E M, Dale I L. Measurement of [Ca^2]i using the fluometric imaging plate reader (FLIPR). In: Lambert DG (ed.), Calcium Signaling Protocols. New Jersey: Humana Press, 1999, 125-136). A baseline fluorescence reading was taken over a 5 to 10 second period, and then 10 μL of EC80 hOrexinA solution was added. […]

SMILES strings stand for the structures. pKi: −log10 of the molar value.

On to `CCOc1ccc(C)nc1C(=O)N1C[C@@H]2C[C@@H]2C[C@H]1COc1ncc(C(F)(F)F)cn1` [Example E4, (1R,4S,6R)-3-{[3-(ethyloxy)-6-methyl-2-pyridinyl]carbonyl}-4-({[5-(trifluoromethyl)-2-pyrimidinyl]oxy}methyl)-3-azabicyclo[4.1.0]heptane], for which the pKi is under 4.80.

For the origin of these results see patent publication US20120040991A1, “3-AZABICYCLO [4.1.0] HEPTANES USED AS OREXIN ANTAGONISTS” (Glaxo Group Limited, priority 2009, published 2012).
